Reference: patent publication US20050239826A1 (Boehringer Ingelheim International GmbH, priority 2004, published 2005)
Blank lines part the entries; values can stand above or below the compound they belong to.

How the values were obtained:
[1] = target: T1, hMCH-1R (Homo sapiens, UniProt Q99705); assay: MCH-1 receptor binding test (125I-MCH binding to membranes of hMCH-1R transfected CHO/Galpha16 cells); settings: 100 pM 125I-MCH
T1 construct: expressed in transfected cells
Method: After the incubation the reaction is filtered using a cell harvester through 0.5% PEI treated fibreglass filters (GF/B, Unifilter Packard). The membrane-bound radioactivity retained on the filter is then determined after the addition of scintillator substance (Packard Microscint 20) in a measuring device (TopCount of Packard). […] The analysis of the concentration binding curve is carried out on the assumption of one receptor binding site.

[2] = rats, intraventricular administration, compared with control animals; cited from earlier work
[3] = long term trials, treated animals; cited from earlier work
[4] = rats; cited from earlier work

T1 sequence (Q99705 whole entry): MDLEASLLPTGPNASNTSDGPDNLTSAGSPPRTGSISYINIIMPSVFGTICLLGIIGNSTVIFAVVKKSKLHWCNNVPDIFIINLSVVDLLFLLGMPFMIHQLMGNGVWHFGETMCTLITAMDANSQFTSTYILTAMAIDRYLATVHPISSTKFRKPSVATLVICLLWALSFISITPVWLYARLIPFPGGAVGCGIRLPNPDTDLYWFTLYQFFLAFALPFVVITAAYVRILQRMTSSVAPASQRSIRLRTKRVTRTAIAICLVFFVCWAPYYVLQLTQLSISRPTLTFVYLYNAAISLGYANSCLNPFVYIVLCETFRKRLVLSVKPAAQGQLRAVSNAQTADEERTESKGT

IC50 [1]: 13.8 nM
Structure (SMILES): OCCCN(CCOc1ccc(C#Cc2ccc(-c3ccc(Cl)cc3)cn2)cc1)CC1(O)CC1 [Example 2.20, 1-{[(2-{4-[5-(4-chloro-phenyl)-pyridin-2-ylethynyl]-phenoxy}-ethyl)-(3-hydroxy-propyl)-amino]-methyl}-cyclopropanol]

Structure (SMILES): CSCC[C@@H]1NC(=O)[C@@H](NC(=O)[C@H](CCCNC(=N)N)NC(=O)[C@H](CC(C)C)NC(=O)[C@H](CCSC)NC(=O)[C@H](CC(=O)O)NC(=O)[C@H](Cc2ccccc2)NC(=O)[C@@H](N)CC(=O)O)CSSC[C@@H](C(=O)N[C@@H](Cc2c[nH]c3ccccc23)C(=O)N[C@@H](CCC(N)=O)C(=O)N[C@H](C(=O)O)C(C)C)NC(=O)[C@@H]2CCCN2C(=O)[C@H](CCCNC(=N)N)NC(=O)[C@H](Cc2ccc(O)cc2)NC(=O)[C@H](C(C)C)NC(=O)[C@H](CCCNC(=N)N)NC(=O)CNC(=O)[C@H](CC(C)C)NC1=O [MCH, Melanin-concentrating hormone]
food intake [2]: food intake was increased

IC50 [1]: 10.9 nM
Structure (SMILES): Cc1cc(C#Cc2ccc(-c3ccc(Cl)cc3)cn2)ccc1OCCN1CC[C@H](O)[C@](C)(O)C1 [Example 1.5, (3R,4S)-1-(2-{4-[5-(4-chloro-phenyl)-pyridin-2-ylethynyl]-2-methyl-phenoxy}-ethyl)-3-methyl-piperidine-3,4-diol]

Structure (SMILES): COCC1=C(C(=O)OC)[C@H](c2ccc(F)c(F)c2)N(C(=O)NCCCN2CCC(c3cccc(NC(C)=O)c3)CC2)C(=O)N1 [SNAP-7941]
body weight [3]: lose significant amounts of weight
effects in behavioural experiments [4]: anxiolytic and antidepressant effects
